Data from patent US20080039535A1, “METHODS OF IDENTIFYING AGENTS FOR TREATING NEUROLOGICAL DISORDERS” (Wyeth, priority 2006, published 2008).
Like-named read-outs stand apart in the source and are kept apart here.

Assays:
GPR88 KO and WT mice [1] = assay: Phencyclidine-stimulated locomotor hyperactivity; type: in vivo
[2] = molecular target: T1, striatal dopamine D2 receptors (Mus musculus, UniProt P61168); assay: [3H]spiperone binding to striatal membrane preparations; set-up: species or system mice
T1 construct: from tissue; host or cells: mouse striatum (WT and GPR88 knockout mice), membrane preparation
Protocol: Striata from 10 mice (male and female, WT & GPR88 KO) were pooled and homogenized in a motor-driven POLYTRON™ homogenizer (Kinematica AG, Newark, N.J.) at setting six for 10 seconds in 3 mL per 100 mg of wet tissue in 50 mM Tris-HCl buffer, pH 7.4, containing 120 mM NaCl, 5 mM KCl, 1.5 mM CaCl2, 4 mM MgCl2, and 1 mM EDTA. […] The binding of each concentration of radioligand was determined in duplicate. Incubations were carried out at room temperature for 120 minutes. The final concentration of the membrane protein in each binding assay was approximately 70 μg/ml. Butaclamol (+), (10 μM), (Sigma-Aldrich, St. Louis, Mo.) was used to define the nonspecific binding. The incubations were terminated by rapid filtration using a Wallac Tomtec harvester (Waltham, Mass.) and buffer-presoaked glass fiber filter mats (GF/B, Whatman Inc. Florham Park, N.J.). […] The radioactivity of the filters was then counted in a Wallac 1205 scintillation counter (Perkin Elmer Life and Analytical Sciences).
The estimates of Bmax (the number of available binding receptors) and Kd (the dissociation constant) were calculated by fitting the specific binding data with nonlinear regression using GraphPad PRISM™ data analysis software (GraphPad Software, San Diego, Calif.).

GPR88 KO and WT mice [3] = assay: Amphetamine-stimulated locomotor hyperactivity; type: in vivo; conditions: 3 mg/kg i.p.
Protocol: The amphetamine-stimulated locomotor hyperactivity assay is another type of assay to model the neuropathological states in schizophrenia, similar to the hyperdopaminergia in the ventral striatum. To measure spontaneous activity and amphetamine-stimulated locomotor hyperactivity, the mice were individually placed in Opto-Veramax-3 monitor cages (Columbus Instruments, Columbus, Ohio) and allowed to habituate for 30 minutes with room light and white noise on. After habituation, each mouse was injected with amphetamine (AMPH, 3 mg/kg) in the intraperitoneum. During the first 30 minutes, the spontaneous activity was recorded every 10 minutes. After amphetamine administration, amphetamine-stimulated locomotor hyperactivity was measured every 10 minutes over a 60 minutes time span by the activity monitor. Accuscan Versamax and Versadat software (Columbus Instruments, Columbus, Ohio) were used to convert the infrared beam breaks into horizontal activity counts. […] Males and females were analyzed separately.

GPR88 KO and WT mice [4] = assay: In vivo striatal microdialysis, extracellular dopamine after amphetamine; conditions: 3 mg/kg i.p.; both genotypes, males and females
Protocol: Chromatographic separations were performed using a Capcell PAK™, Strong Cation Exchange columns (5 μm UG80, 1.5×150 mm; Shiseido, Phenomenex, USA). The mobile phase comprised (mM) 13 Na2HPO4, 87 NaH2PO4, 0.1 EDTA and 20% methanol, was adjusted to pH 6 and delivered at 0.2 ml/minutes at 40° C.

GPR88 KO and WT mice [5] = assay: Apomorphine-induced climbing and stereotypy; type: in vivo
Protocol: (§1) The GPR88 KO and WT mice were acclimated to a wire cage (cylindrical ½″×½″ mesh with the dimensions of 4½″ d×5½″ h) for at least 2 hours before testing to allow proper habituation. […] (+ present, − absent). Readings were repeated every 5 minutes during a 30-minute test session.
The behavioral assessment was conducted over three conditions in succession: (1) an evaluation of the response to a subcutaneous vehicle (0.25% TWEEN® 80) injection to establish a baseline; (2) followed by an evaluation of the response to a dose of 0.3 mg/kg subcutaneous apomorphine injection; (3) followed by an evaluation of the response to 1 mg/kg subcutaneous apomorphine injection. Behavioral observation began 5 minutes after each injection. Vehicle was given at T0 minutes with observational assessment from T5-T35 minutes and habituation followed from T35-T65 minutes.
At T65, the 0.3 mg/kg dose of apomorphine was administered. Behavioral observation for the 0.3 mg/kg dose of apomorphine was from T70-T100, followed by another habituation from T100-T130 minutes.
At T130 min, the 1.0 mg/kg dose of apomorphine was administered and then the mice were scored from T135-T165 min. For each subject, the climbing scores were totaled for each observational period (maximum=12 per animal). Stereotypy scores were also summed up (maximum=6 per animal). […] Males and females were analyzed separately.

GPR88 KO and WT mice [6] = assay: Haloperidol-induced catalepsy; conditions: 1 mg/kg i.p.; for percentage of maximum catalepsy over time: 30, 60, 90, 120 minutes
Protocol: Thirty, 60, 90, and 120 minutes following drug administration, the animal's forelimbs were draped over a thin horizontal rod 1¼″ high. The amount of time in seconds for which the animal maintained this awkward posture was recorded (60 seconds was maximum). Maintenance of this position was considered catalepsy. Animals that appeared to be sedated or had loss of muscle tone were checked for a righting reflex. Those mice that could not right themselves when placed on their backs were eliminated from the study. Mean time spent in the catalepsy position for the dose at each time was expressed as a percentage of maximum possible catalepsy. During the study's four time periods, the number of seconds with maintenance of the catalepsy position was recorded for each animal. Data was subjected to repeated-measures ANOVA followed by post-hoc analysis of least squares means. Males and females were analyzed separately.

GPR88 KO and WT mice [7] = assay: Antipsychotic block of apomorphine-induced climbing and stereotypy; type: in vivo; conditions: for minimal effective dose (MED), block of apomorphine-induced climbing / minimal effective dose (MED), block of apomorphine-induced stereotypy: i.p. 30 minutes before apomorphine 0.54 mg/kg
Protocol: as §1
Observation and scoring for climbing and stereotypy were performed as described in Example 6. […] Males and females were analyzed separately. […] For graphical representation, the data was normalized to the amount of climbing and stereotypy shown by the vehicle treated control group.

GPR88 KO and WT mice [8] = conditions: for percentage prepulse inhibition (PPI), treatment effect: 0.54 mg/kg i.p. 30 minutes before testing, vs vehicle
Protocol: To detect potential phenotypic deficits in the GPR88 knockout mice, they were first evaluated for startle habituation. In brief, mice were tested using the SR-LAB (San Diego Instruments, San Diego, Calif.) system. Each system consists of a ventilated sound attenuated chamber containing a stabilimeter consisting of a Plexiglas cylinder (12.5 cm length, 3.5 cm diameter) mounted on a Plexiglas frame. Acoustic stimuli were delivered through a speaker mounted in the enclosure ceiling, that was 27 cm above the cylinder. Startle responses were transduced by a piezoelectric accelerometer mounted beneath the frame. Output signals were digitized and rectified as consecutive 1-millisecond (msec) readings (a total of 65 were recorded, and startle response was expressed as an averaged response across these samples) on a computer using the San Diego Instrument software. Mice were placed individually in the chamber for a 5-minute acclimation period at a background noise level of 64 dB.
Prepulse inhibition was measured immediately following the startle sensitivity test. Five different trial tests were used in studying prepulse inhibition and were performed in a pseudorandom order. These trial tests included (1) a no stimulus trial (64 dB background noise to determine basal activity), a pulse alone trial (118 dB, 40 ms duration), and three 20 ms prepulses at either 69, 76, or 84 dB intensities paired (100 ms, onset to onset) with the 118 dB pulse. […] Percentage prepulse inhibition was calculated as 100 minus the ratio of the average startle response observed at each prepulse+pulse trial relative to the pulse alone stimulus, times 100. The percentage prepulse at across dB levels was analyzed by repeated-measures ANOVA. […] Males and females were analyzed separately. […]
The PPI was averaged across the 3 dB levels and analyzed by a two-way ANOVA with genotype and treatment as the factors followed by a post hoc analysis of least square means. Males and females were again analyzed separately.

[9] = female GPR88 KO and WT mice, 1 mg/kg s.c.
[10] = GPR88 KO and WT female mice, 0.3 mg/kg
[11] = male WT mice, 0.54 and 1.0 mg/kg

T1 sequence (P61168 whole entry): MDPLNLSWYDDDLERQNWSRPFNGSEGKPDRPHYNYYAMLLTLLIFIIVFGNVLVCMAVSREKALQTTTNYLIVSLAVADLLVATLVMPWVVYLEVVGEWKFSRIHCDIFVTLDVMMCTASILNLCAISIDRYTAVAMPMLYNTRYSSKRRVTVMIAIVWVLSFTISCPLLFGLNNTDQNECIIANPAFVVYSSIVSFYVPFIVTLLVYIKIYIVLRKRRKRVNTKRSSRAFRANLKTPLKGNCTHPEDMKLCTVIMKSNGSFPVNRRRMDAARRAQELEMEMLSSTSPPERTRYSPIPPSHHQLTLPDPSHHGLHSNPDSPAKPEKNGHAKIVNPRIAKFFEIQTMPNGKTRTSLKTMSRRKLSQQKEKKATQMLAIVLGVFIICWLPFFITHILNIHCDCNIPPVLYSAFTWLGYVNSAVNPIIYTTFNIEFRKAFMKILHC

## c1ccc(C2(N3CCCCC3)CCCCC2)cc1 [PCP, phencyclidine]
GPR88 KO and WT mice [1]; female WT and GPR88 KO mice, 1.0 mg/kg
  locomotor activity after administration: Neither of the genotypes responded
GPR88 KO and WT mice [1]; female WT and GPR88 KO mice, 1.7 mg/kg or 3.0 mg/kg
  locomotor activity after administration: increased locomotor activity
GPR88 KO and WT mice [1]; female mice
  locomotor activation (total distance traveled), KO compared with WT: increased sensitivity for locomotor activation
GPR88 KO and WT mice [1]; male WT and GPR88 KO mice, 3 mg/kg i.p.
  locomotor activity after administration: increased locomotor activity
GPR88 KO and WT mice [1]; male WT and GPR88 KO mice, lower doses (1.0, 1.7 mg/kg)
  locomotor activity after administration: Neither of the genotypes responded
GPR88 KO and WT mice [1]; male mice
  locomotor activation (total distance traveled), KO compared with WT: increased sensitivity for locomotor activation

## O=C(CCCN1CCC2(CC1)C(=O)NCN2c1ccccc1)c1ccc(F)cc1 [[^3H]spiperone]
[2]; striatal membranes of GPR88 KO mice
  Bmax (the number of available binding receptors): 1.83 pmol/mg
[2]; striatal membranes of WT mice
  Bmax (the number of available binding receptors): 1.34 pmoles/mg protein

## CC(N)Cc1ccccc1 (centres unmarked) [amphetamine]
GPR88 KO and WT mice [3]; female mice, 40-90 min
  locomotor activity after administration: significant increase in activity
  locomotor activity, KO compared with WT: more hyperactivity overall
GPR88 KO and WT mice [3]; male mice (GPR88 KO), 40-90 min
  locomotor activity after administration: significant increase in activity
GPR88 KO and WT mice [3]; male mice
  locomotor activity, KO compared with WT: greater increase in activity up to the 50 minute time point
GPR88 KO and WT mice [4]
  striatal extracellular dopamine after administration: significant and equal increase in dopamine

## CN1CCc2cccc3c2[C@H]1Cc1ccc(O)c(O)c1-3 [apomorphine]
GPR88 KO and WT mice [5]; apomorphine-induced
  average increase in climbing scores of GPR88 KO mice over the wild type mice: 227%
  average increase in stereotypy scores of GPR88 KO mice over the wild type mice: 129%
GPR88 KO and WT mice [5]; [9]
  climbing, dose effect: the most climbing
  stereotypy, dose effect: the most stereotypy
GPR88 KO and WT mice [5]; female mice, 0.3 mg/kg s.c.
  climbing scores, KO compared with WT: higher climbing scores
  stereotypy, KO compared with WT: more stereotypy
GPR88 KO and WT mice [5]; female mice, 1 mg/kg s.c.
  climbing, KO compared with WT: equivalent
GPR88 KO and WT mice [5]; male GPR88 KO and WT mice, 1 mg/kg s.c.
  stereotypy scores, dose effect: maximal stereotypy
GPR88 KO and WT mice [5]; male GPR88 KO and WT mice, vehicle, 0.3 and 1 mg/kg s.c.
  climbing scores, dose effect: climbing increasing with the dose of apomorphine
GPR88 KO and WT mice [5]; male mice, 0.3 mg/kg s.c.
  climbing scores, KO compared with WT: higher climbing scores
  stereotypy, KO compared with WT: more stereotypy
GPR88 KO and WT mice [5]; male mice, 1 mg/kg s.c.
  climbing, KO compared with WT: equivalent
  stereotypy, KO compared with WT: equivalent

## O=C(CCCN1CCC(O)(c2ccc(Cl)cc2)CC1)c1ccc(F)cc1 [haloperidol]
GPR88 KO and WT mice [6]; GPR88 KO and WT male mice
  percentage of maximum catalepsy over time: percentage of maximum catalepsy increasing to the 120 minute test point
GPR88 KO and WT mice [6]; female mice
  percentage of maximum catalepsy over time: percentage of maximum catalepsy increasing to the 120 minute test point
GPR88 KO and WT mice [6]; male and female mice
  level of catalepsy, GPR88 KO compared with WT: equivalent levels of catalepsy
GPR88 KO and WT mice [7]; [10]
  block of apomorphine-induced climbing: full block of climbing
  block of apomorphine-induced stereotypy: full block of stereotypy
GPR88 KO and WT mice [7]; male GPR88 KO mice
  dose required to produce a full block of climbing: 1.0 mg/kg
  minimal effective dose, apomorphine-induced climbing and stereotypy (summary): 0.54 mg/kg
  minimal effective dose (MED), block of apomorphine-induced climbing: 0.54 mg/kg
  minimal effective dose (MED), block of apomorphine-induced stereotypy: 0.54 mg/kg
GPR88 KO and WT mice [7]; male GPR88 KO mice, 1.0 mg/kg
  block of apomorphine-induced stereotypy: 50%
GPR88 KO and WT mice [7]; male WT mice
  minimal effective dose, apomorphine-induced climbing and stereotypy (summary): < 0.3 mg/kg
  minimal effective dose (MED), block of apomorphine-induced climbing: less than or equal to 0.3 mg/kg
  minimal effective dose (MED), block of apomorphine-induced stereotypy: less than or equal to 0.3 mg/kg
GPR88 KO and WT mice [7]; [11]
  block of apomorphine-induced climbing: full block of climbing
  block of apomorphine-induced stereotypy: full block of stereotypy

## Cc1nc2n(c(=O)c1CCN1CCC(c3noc4cc(F)ccc34)CC1)CCCC2 [risperidone]
GPR88 KO and WT mice [8]; GPR88 KO mice, summary statement
  deficit in PPI of GPR88 KO mice upon treatment: normalized
GPR88 KO and WT mice [8]; male GPR88 KO mice
  percentage prepulse inhibition (PPI), treatment effect: significant treatment effect
GPR88 KO and WT mice [8]; male WT mice
  percentage prepulse inhibition (PPI), treatment effect: significant treatment effect
